Consider one compound from patent publication US20220008325A1, “WHITE PINE BARK EXTRACT FOR DECREASING ENDOTHELIN-1 SECRETION, STEM CELL FACTOR SYNTHESIS AND PROTEIN CARBONYLATION” (International Flavors & Fragrances Inc., priority 2018, published 2022).

This assay concerns pigmented reconstructed human epidermis (RHE). Description: Melanin synthesis in ex vivo pigmented reconstructed human epidermis (Fontana-Masson staining). Format: cell-based. The conditions noted are these: pigmented RHE phototype IV, topical formulation (2% extract or 1% kojic acid), 3 days, 2 applications per day, vs placebo formula. The method, then: Non-pigmented reconstructed human epidermis (RHE) and pigmented RHE phototype IV were prepared by seeding human melanocytes and keratinocytes in an incubation chamber placed on the epidermal side of a dead dermis at 4×10^5 cells per cm^2, at a 1:20 melanocyte:keratinocyte ratio. After 24 hours, the incubation chamber was removed and the dead dermis was submerged for 3 days. The dead dermis was moved to the air-liquid interface for 8 days prior to treatment. After 8 days of exposure to the air-liquid interface, the pigmented RHE and non-pigmented RHE were contacted with Pinus strobus bark extract, placebo, negative control (no treatment), or positive control (kojic acid). This involved topical application of each formulation for 3 days, 2 applications per day (see FIG. 5). After 3 days, pigmented RHE was incubated for 3 days in the presence of a 1:1 mixture of fresh media and conditioned media from the non-pigmented RHE. The formulations included Heliogel™ (sodium acrylates copolymer, hydrogenated polyisobutene, phospholipids, polyglyceryl-10 stearate, sunflower seed oil; Lucas Meyer Cosmetics), Saboderm TCC (Caprylic/Capric Triglyceride; SABO, S.p.A), and Dekaben C (phenoxyethanol, methylparaben, ethylparaben, butylparaben, isobutylparaben, propylparaben; Jan Dekker BV) in the amounts listed in Table 1. Pigmentation was evaluated by Fontana-Masson staining. […]

Consider `O=c1cc(CO)occ1O` [Kojic acid], for which the “decrease in melanin synthesis” value was 8.1%.
